# Assay results as given in paper PMC10114980, “Triple targeting of mutant EGFR^L858R/T790M, COX-2, and 15-LOX: design and synthesis of novel quinazolinone tethered phenyl urea derivatives for anti-inflammatory and anticancer evaluation” (Journal of Enzyme Inhibition and Medicinal Chemistry, 2023).
# Key:
# ovine COX-1 = biological target: T1, ovine COX-1 (Ovis aries, UniProt P05979); test: In vitro COX-1 inhibition assay kit (Cayman); type: biochemical; conditions: mean ± SEM, n = 3 replicates
# T1 sequence (P05979 25-600): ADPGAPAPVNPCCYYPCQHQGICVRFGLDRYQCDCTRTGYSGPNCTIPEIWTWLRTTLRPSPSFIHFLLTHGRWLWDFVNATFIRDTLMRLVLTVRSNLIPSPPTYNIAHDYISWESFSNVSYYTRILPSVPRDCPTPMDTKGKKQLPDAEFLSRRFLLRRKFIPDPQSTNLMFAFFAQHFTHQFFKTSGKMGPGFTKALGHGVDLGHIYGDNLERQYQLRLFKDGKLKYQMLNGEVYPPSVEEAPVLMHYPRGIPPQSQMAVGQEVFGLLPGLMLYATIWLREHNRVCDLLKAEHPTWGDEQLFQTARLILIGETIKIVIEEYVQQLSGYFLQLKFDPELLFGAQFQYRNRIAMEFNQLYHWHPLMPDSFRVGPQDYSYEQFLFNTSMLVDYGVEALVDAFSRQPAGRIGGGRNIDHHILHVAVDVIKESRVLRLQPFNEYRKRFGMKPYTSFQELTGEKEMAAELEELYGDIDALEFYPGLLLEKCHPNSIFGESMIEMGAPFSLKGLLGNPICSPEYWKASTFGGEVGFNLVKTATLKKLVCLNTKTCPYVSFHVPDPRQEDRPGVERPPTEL
# Experimental: The half-maximal inhibitory concentration (IC50, μM) was determined, and the COX-2 selectivity index (SI) was calculated as IC50 (COX-1)/IC50 (COX-2).
# wild-type EGFR = biological target: T2, wild-type EGFR (Homo sapiens, UniProt P00533); test: In vitro EGFR inhibition assay, wild type; type: biochemical; conditions: for IC50: read-out: EGFR^WT IC50
# T2 construct: purchased AssayQuant Technologies, Inc. (Marlboro, MA, USA)
# HL-60(TB) = test: NCI single dose screen, HL-60(TB); type: cell-based; conditions: Homo sapiens, leukaemia, single dose 10^−5 M, read-out: growth inhibition percentage
# Experimental: (§1) Screening of the anticancer activity of the newly synthesised compounds (6a, 6c, 6d, 6e, 6j, 6l, 6m, 6n, 6o, and 6p) was performed by the US National Cancer Institute (NCI) using 60 different human tumour cell lines in accordance with standard procedures formerly reported.
# (§2) In vitro anticancer screening was carried out for the selected compounds at a single dose (10^−5 M) against 60 different human tumour cell lines of nine different cancer cell types: leukaemia, lung, colon, CNS, melanoma, ovarian, renal, prostate, and breast cancers.
# K-562 = test: NCI single dose screen, K-562; type: cell-based; conditions: Homo sapiens, K562; K-562, leukaemia; single dose 10^−5 M; read-out: growth inhibition percentage
# Experimental: as §1, §2
# RPMI-8226 = test: NCI single dose screen, RPMI-8226; type: cell-based; conditions: Homo sapiens; RPMI-8226, leukaemia; single dose 10^−5 M; read-out: growth inhibition percentage
# Experimental: as §1, §2
# HOP-62 = test: NCI single dose screen, HOP-62; type: cell-based; conditions: Homo sapiens; HOP-62, non-small cell lung cancer; single dose 10^−5 M; read-out: growth inhibition percentage
# Experimental: as §1, §2
# NCI-H460 = test: NCI single dose screen, NCI-H460; type: cell-based; conditions: Homo sapiens; NCI-H460, non-small cell lung cancer; single dose 10^−5 M; read-out: growth inhibition percentage
# Experimental: as §1, §2
# NCI-H522 = test: NCI single dose screen, NCI-H522; type: cell-based; conditions: Homo sapiens; NCI-H522, non-small cell lung cancer; single dose 10^−5 M; read-out: growth inhibition percentage
# Experimental: as §1, §2
# COLO 205 = test: NCI single dose screen, COLO 205; type: cell-based; conditions: Homo sapiens; COLO 205, colon cancer; single dose 10^−5 M; read-out: growth inhibition percentage
# Experimental: as §1, §2
# HCC-2998 = test: NCI single dose screen, HCC-2998; type: cell-based; conditions: Homo sapiens; HCC-2998, colon cancer; single dose 10^−5 M; read-out: growth inhibition percentage
# Experimental: as §1, §2
# HCT-116 = test: NCI single dose screen, HCT-116; type: cell-based; conditions: Homo sapiens; HCT-116, colon cancer; single dose 10^−5 M; read-out: growth inhibition percentage
# Experimental: as §1, §2
# HT29 = test: NCI single dose screen, HT29; type: cell-based; conditions: Homo sapiens, HT-29; HT29, colon cancer; single dose 10^−5 M; read-out: growth inhibition percentage
# Experimental: as §1, §2
# SNB-19 = test: NCI single dose screen, SNB-19; type: cell-based; conditions: Homo sapiens; SNB-19, CNS cancer; single dose 10^−5 M; read-out: growth inhibition percentage
# Experimental: as §1, §2
# LOX IMVI = test: NCI single dose screen, LOX IMVI; type: cell-based; conditions: Homo sapiens, melanoma, single dose 10^−5 M, read-out: growth inhibition percentage
# Experimental: as §1, §2
# MALME-3M = test: NCI single dose screen, MALME-3M; type: cell-based; conditions: Homo sapiens, melanoma, single dose 10^−5 M, read-out: growth inhibition percentage
# Experimental: as §1, §2
# M14 = test: NCI single dose screen, M14; type: cell-based; conditions: Homo sapiens; M14, melanoma; single dose 10^−5 M; read-out: growth inhibition percentage
# Experimental: as §1, §2
# SK-MEL-2 = test: NCI single dose screen, SK-MEL-2; type: cell-based; conditions: Homo sapiens; SK-MEL-2, melanoma; single dose 10^−5 M; read-out: growth inhibition percentage
# Experimental: as §1, §2
# UACC-257 = test: NCI single dose screen, UACC-257; type: cell-based; conditions: Homo sapiens; UACC-257, melanoma; single dose 10^−5 M; read-out: growth inhibition percentage
# Experimental: as §1, §2
# A498 = test: NCI single dose screen, A498; type: cell-based; conditions: Homo sapiens; A498, renal cancer; single dose 10^−5 M; read-out: growth inhibition percentage
# Experimental: as §1, §2
# ACHN = test: NCI single dose screen, ACHN; type: cell-based; conditions: Homo sapiens, renal cancer, single dose 10^−5 M, read-out: growth inhibition percentage
# Experimental: as §1, §2
# CAKI-1 = test: NCI single dose screen, CAKI-1; type: cell-based; conditions: Homo sapiens; CAKI-1, renal cancer; single dose 10^−5 M; read-out: growth inhibition percentage
# Experimental: as §1, §2
# SN12C = test: NCI single dose screen, SN12C; type: cell-based; conditions: Homo sapiens, renal cancer, single dose 10^−5 M, read-out: growth inhibition percentage
# Experimental: as §1, §2
# PC-3 = test: NCI single dose screen, PC-3; type: cell-based; conditions: Homo sapiens; PC-3, prostate cancer; single dose 10^−5 M; read-out: growth inhibition percentage
# Experimental: as §1, §2
# MCF7 = test: NCI single dose screen, MCF7; type: cell-based; conditions: Homo sapiens; MCF7, breast cancer; single dose 10^−5 M; read-out: growth inhibition percentage
# Experimental: as §1, §2
# BT-549 = test: NCI single dose screen, BT-549; type: cell-based; conditions: Homo sapiens; BT-549, breast cancer; single dose 10^−5 M; read-out: growth inhibition percentage
# Experimental: as §1, §2
# MDA-MB-468 = test: NCI single dose screen, MDA-MB-468; type: cell-based; conditions: Homo sapiens; MDA-MB-468, breast cancer; single dose 10^−5 M; read-out: growth inhibition percentage
# Experimental: as §1, §2
# T2 sequence (P00533 25-1210): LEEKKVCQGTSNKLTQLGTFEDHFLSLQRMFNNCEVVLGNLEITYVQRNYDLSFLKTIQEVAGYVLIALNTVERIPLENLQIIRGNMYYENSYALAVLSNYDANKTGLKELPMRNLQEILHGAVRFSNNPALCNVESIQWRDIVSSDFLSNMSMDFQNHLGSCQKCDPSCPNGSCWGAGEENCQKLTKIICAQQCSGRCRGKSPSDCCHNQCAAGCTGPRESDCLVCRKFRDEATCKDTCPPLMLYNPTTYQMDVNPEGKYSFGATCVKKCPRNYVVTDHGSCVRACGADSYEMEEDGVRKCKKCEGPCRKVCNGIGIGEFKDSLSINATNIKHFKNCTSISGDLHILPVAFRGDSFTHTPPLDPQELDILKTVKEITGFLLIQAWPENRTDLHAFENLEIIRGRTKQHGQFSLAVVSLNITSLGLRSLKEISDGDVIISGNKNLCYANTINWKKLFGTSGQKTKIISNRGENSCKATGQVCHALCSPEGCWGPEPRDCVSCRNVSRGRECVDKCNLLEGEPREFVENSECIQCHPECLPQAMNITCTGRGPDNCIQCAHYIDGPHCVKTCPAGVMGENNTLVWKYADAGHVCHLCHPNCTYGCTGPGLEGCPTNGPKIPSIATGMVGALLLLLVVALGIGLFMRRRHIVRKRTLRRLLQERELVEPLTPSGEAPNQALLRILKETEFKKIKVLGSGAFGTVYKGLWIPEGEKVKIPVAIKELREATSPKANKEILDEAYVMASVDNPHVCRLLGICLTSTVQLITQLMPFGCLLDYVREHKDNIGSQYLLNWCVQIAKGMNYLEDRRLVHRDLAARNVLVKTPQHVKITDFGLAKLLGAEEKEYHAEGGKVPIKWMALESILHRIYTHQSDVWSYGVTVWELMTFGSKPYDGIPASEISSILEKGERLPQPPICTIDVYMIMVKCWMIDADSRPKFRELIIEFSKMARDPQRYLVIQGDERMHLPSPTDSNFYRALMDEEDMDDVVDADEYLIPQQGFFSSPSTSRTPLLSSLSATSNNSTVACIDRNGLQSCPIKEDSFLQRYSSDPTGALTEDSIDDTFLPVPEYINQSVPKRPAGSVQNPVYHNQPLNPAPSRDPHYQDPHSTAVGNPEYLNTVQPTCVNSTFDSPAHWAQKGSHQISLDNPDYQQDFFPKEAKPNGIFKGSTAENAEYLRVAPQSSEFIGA
SMILES,IC50 (ovine COX-1) [µM],IC50 (wild-type EGFR) [µM],inhibition at 10 µM (HL-60(TB)) [%],inhibition at 10 µM (K-562) [%],inhibition at 10 µM (RPMI-8226) [%],inhibition at 10 µM (HOP-62) [%],inhibition at 10 µM (NCI-H460) [%],inhibition at 10 µM (NCI-H522) [%],inhibition at 10 µM (COLO 205) [%],inhibition at 10 µM (HCC-2998) [%],inhibition at 10 µM (HCT-116) [%],inhibition at 10 µM (HT29) [%],inhibition at 10 µM (SNB-19) [%],inhibition at 10 µM (LOX IMVI) [%],inhibition at 10 µM (MALME-3M) [%],inhibition at 10 µM (M14) [%],inhibition at 10 µM (SK-MEL-2) [%],inhibition at 10 µM (UACC-257) [%],inhibition at 10 µM (A498) [%],inhibition at 10 µM (ACHN) [%],also measured
"CN1CN(NC(=O)Nc2ccccc2)C(=O)c2ccccc21 [Compound 6a, 1-(1-Methyl-4-oxo-1,4-dihydroquinazolin-3(2H)-yl)-3-phenylurea]",12.5 ± 1.36,> 100,< 10,< 10,< 10,< 10,< 10,< 10,< 10,< 10,< 10,< 10,< 10,< 10,< 10,< 10,< 10,< 10,< 10,< 10,EGFR^WT IC50 (wild-type EGFR): no significant activity; inhibition at 10 µM (CAKI-1): < 10%; inhibition at 10 µM (SN12C): < 10%; inhibition at 10 µM (PC-3): < 10%; inhibition at 10 µM (MCF7): < 10%; inhibition at 10 µM (BT-549): < 10%; inhibition at 10 µM (MDA-MB-468): < 10%
"CN1c2ccccc2C(=O)N(NC(=O)Nc2ccccc2)C1c1ccccc1 (stereo not shown) [Compound 6c, 1-(1-Methyl-4-oxo-2-phenyl-1,4-dihydroquinazolin-3(2H)-yl)-3-phenylurea]",1 ± 1.78,> 100,< 10,< 10,< 10,< 10,< 10,< 10,< 10,< 10,16.8,< 10,< 10,< 10,< 10,< 10,< 10,< 10,< 10,< 10,inhibition at 10 µM (CAKI-1): < 10%; inhibition at 10 µM (SN12C): < 10%; inhibition at 10 µM (PC-3): < 10%; inhibition at 10 µM (MCF7): < 10%; inhibition at 10 µM (BT-549): < 10%; inhibition at 10 µM (MDA-MB-468): < 10%
"CN1c2ccccc2C(=O)N(NC(=O)Nc2ccccc2)C1c1ccc(F)cc1 (stereo not shown) [Compound 6d, 1-(2-(4-Fluorophenyl)-1-methyl-4-oxo-1,4-dihydroquinazolin-3(2H)-yl)-3-phenylurea]",4.56 ± 1.33,> 100,< 10,< 10,< 10,< 10,< 10,< 10,< 10,< 10,< 10,< 10,< 10,< 10,< 10,< 10,< 10,< 10,< 10,< 10,inhibition at 10 µM (CAKI-1): 13%; inhibition at 10 µM (SN12C): < 10%; inhibition at 10 µM (PC-3): 18.6%; inhibition at 10 µM (MCF7): < 10%; inhibition at 10 µM (BT-549): < 10%; inhibition at 10 µM (MDA-MB-468): < 10%
